From BindingDB's records for doi:10.1021/jm00073a012 (Glaxo Group Research, 1993)

The molecules below were run against T1, Dimer of Gag-Pol polyprotein [489-587] (Human immunodeficiency virus 1, UniProt P12497) (assay: Protease Inhibition Assay). Settings: pH 6; 37 °C.
T1 construct: 489-587
Experimental: IC50 values were obtained by assaying the enzyme against the synthetic substrate peptide KQGTVSFNFPQIT, which was tritiated at the proline residue, and then was coupled via its N-terminal lysine to an Affi-gel bead mixture. The assay was performed in 96-well microtiter filtration plates. The plates containing HIV protease and radiolabeled substrate beads were incubated with or without inhibitor. After filtration, radioactivity was measured using an LKB 1205 Microbeta liquid scintillation counter. IC50 determinations were performed in duplicate at each concentration with mean values used for data analysis.

Structure (SMILES)	IC50 [µM]
C[C@@H](Cc1ccccc1)NC(=O)[C@@H]1N[C@@H]([C@H](NC(=O)Cc2ccccc2)C(=O)NCc2ccccc2)SC1(C)C [(2R,4S)-2-[(R)-(benzylcarbamoyl)(1-phenylacetamido)methyl]-5,5-dimethyl-N-[(2S)-1-phenylpropan-2-yl]-1,3-thiazolidine-4-carboxamide]	> 180
C[C@H](Cc1ccccc1)NC(=O)[C@@H]1N[C@@H]([C@H](NC(=O)Cc2ccccc2)C(=O)NCc2ccccc2)SC1(C)C [(2R,4S)-2-[(R)-(benzylcarbamoyl)(1-phenylacetamido)methyl]-5,5-dimethyl-N-[(2R)-1-phenylpropan-2-yl]-1,3-thiazolidine-4-carboxamide]	> 180
CC(C)[C@H](CO)NC(=O)[C@@H]1N[C@@H]([C@H](NC(=O)Cc2ccccc2)C(=O)NCc2ccccc2)SC1(C)C [(2R,4S)-2-[(R)-(benzylcarbamoyl)(1-phenylacetamido)methyl]-N-[(2R)-1-hydroxy-3-methylbutan-2-yl]-5,5-dimethyl-1,3-thiazolidine-4-carboxamide]	> 4.7
CC1(C)S[C@H]([C@H](NC(=O)Cc2ccccc2)C(=O)NCc2ccccc2)N[C@H]1C(N)=O [[2R-[2a(R*),4B]]-4-Carbamoyl-5,5-dimethyl-a-[(phenylacetyl)amino]-N-(phenylmethyl)-2-thiazolidineacetamide]	> 230
CC1(C)S[C@H]([C@H](NC(=O)Cc2ccccc2)C(=O)NCc2ccccc2)N[C@H]1C(=O)N[C@H](CO)Cc1ccccc1 [(2R,4S)-2-[(R)-(benzylcarbamoyl)(1-phenylacetamido)methyl]-N-[(2S)-1-hydroxy-3-phenylpropan-2-yl]-5,5-dimethyl-1,3-thiazolidine-4-carboxamide]	> 170
CC1(C)S[C@H]([C@H](NC(=O)Cc2ccccc2)C(=O)NCc2ccccc2)N[C@H]1C(=O)NCCNC(=O)[C@@H]1N[C@@H]([C@H](NC(=O)Cc2ccccc2)C(=O)NCc2ccccc2)SC1(C)C [(2R,4S)-2-[(R)-(benzylcarbamoyl)(1-phenylacetamido)methyl]-N-(2-{[(2R,4S)-2-[(R)-(benzylcarbamoyl)(1-phenylacetamido)methyl]-5,5-dimethyl-1,3-thiazolidin-4-yl]formamido}ethyl)-5,5-dimethyl-1,3-thiazolidine-4-carboxamide]	0.0009
C[C@H](CO)NC(=O)[C@@H]1N[C@@H]([C@H](NC(=O)Cc2ccccc2)C(=O)NCc2ccccc2)SC1(C)C [(2R,4S)-2-[(R)-(benzylcarbamoyl)(1-phenylacetamido)methyl]-N-[(2R)-1-hydroxypropan-2-yl]-5,5-dimethyl-1,3-thiazolidine-4-carboxamide]	> 20
CCC(C)C(CO)NC(=O)[C@@H]1N[C@@H]([C@H](NC(=O)Cc2ccccc2)C(=O)NCc2ccccc2)SC1(C)C (stereo partly drawn) [(2R,4S)-2-[(R)-(benzylcarbamoyl)(1-phenylacetamido)methyl]-N-(1-hydroxy-3-methylpentan-2-yl)-5,5-dimethyl-1,3-thiazolidine-4-carboxamide]	> 0.54
CC(C)C[C@H](CO)NC(=O)[C@@H]1N[C@@H]([C@H](NC(=O)Cc2ccccc2)C(=O)NCc2ccccc2)SC1(C)C [(2R,4S)-2-[(R)-(benzylcarbamoyl)(1-phenylacetamido)methyl]-N-[(2R)-1-hydroxy-4-methylpentan-2-yl]-5,5-dimethyl-1,3-thiazolidine-4-carboxamide]	> 4.6
